Source: ChEMBL document CHEMBL1909046, “DrugMatrix in vitro pharmacology data”

Columns and labels:
[1] = target: Beta-3 adrenergic receptor (Homo sapiens, UniProt P13945); assay: DRUGMATRIX: Adrenergic beta3 radioligand binding (ligand: [125I] Cyanopindolol); type: cell membranes, HEK293, Membrane; details: hek293; Not Active = under 50% inhibition at 10 µM
[2] = target: 5-hydroxytryptamine receptor 4 (Cavia porcellus, UniProt O70528); type: cell membranes, Dunkin-Hartley, Striatum, Membrane; also: in other assays of this panel Not Active means under 50% inhibition at 10 µM
Sequence of 5-hydroxytryptamine receptor 4 (O70528 whole entry): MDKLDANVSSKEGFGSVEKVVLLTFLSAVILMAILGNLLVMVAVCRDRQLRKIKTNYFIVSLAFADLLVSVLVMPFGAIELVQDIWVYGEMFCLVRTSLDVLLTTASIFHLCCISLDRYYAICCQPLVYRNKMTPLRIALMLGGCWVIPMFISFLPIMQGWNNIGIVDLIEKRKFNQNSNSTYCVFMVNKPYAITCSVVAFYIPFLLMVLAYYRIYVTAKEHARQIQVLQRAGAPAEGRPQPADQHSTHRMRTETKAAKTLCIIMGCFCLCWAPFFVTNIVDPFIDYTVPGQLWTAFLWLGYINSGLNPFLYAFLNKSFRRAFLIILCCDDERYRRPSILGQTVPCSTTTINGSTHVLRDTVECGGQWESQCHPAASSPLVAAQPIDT

[3] = DRUGMATRIX: Glutamate, Kainate radioligand binding (ligand: [3H] Kainic acid); type: cell membranes, Rattus norvegicus, Wistar, Brain, Membrane; details: Not Active = under 50% inhibition at 10 µM
[4] = target: T1, Nitric oxide synthase, inducible (Mus musculus, UniProt P29477); parameters: species or system Escherichia coli;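 also: inhibition of iNOS enzyme activity measured with L-arginine as substrate; in other assays of this panel Not Active means under 50% inhibition at 10 µM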
T1 sequence (P29477 whole entry): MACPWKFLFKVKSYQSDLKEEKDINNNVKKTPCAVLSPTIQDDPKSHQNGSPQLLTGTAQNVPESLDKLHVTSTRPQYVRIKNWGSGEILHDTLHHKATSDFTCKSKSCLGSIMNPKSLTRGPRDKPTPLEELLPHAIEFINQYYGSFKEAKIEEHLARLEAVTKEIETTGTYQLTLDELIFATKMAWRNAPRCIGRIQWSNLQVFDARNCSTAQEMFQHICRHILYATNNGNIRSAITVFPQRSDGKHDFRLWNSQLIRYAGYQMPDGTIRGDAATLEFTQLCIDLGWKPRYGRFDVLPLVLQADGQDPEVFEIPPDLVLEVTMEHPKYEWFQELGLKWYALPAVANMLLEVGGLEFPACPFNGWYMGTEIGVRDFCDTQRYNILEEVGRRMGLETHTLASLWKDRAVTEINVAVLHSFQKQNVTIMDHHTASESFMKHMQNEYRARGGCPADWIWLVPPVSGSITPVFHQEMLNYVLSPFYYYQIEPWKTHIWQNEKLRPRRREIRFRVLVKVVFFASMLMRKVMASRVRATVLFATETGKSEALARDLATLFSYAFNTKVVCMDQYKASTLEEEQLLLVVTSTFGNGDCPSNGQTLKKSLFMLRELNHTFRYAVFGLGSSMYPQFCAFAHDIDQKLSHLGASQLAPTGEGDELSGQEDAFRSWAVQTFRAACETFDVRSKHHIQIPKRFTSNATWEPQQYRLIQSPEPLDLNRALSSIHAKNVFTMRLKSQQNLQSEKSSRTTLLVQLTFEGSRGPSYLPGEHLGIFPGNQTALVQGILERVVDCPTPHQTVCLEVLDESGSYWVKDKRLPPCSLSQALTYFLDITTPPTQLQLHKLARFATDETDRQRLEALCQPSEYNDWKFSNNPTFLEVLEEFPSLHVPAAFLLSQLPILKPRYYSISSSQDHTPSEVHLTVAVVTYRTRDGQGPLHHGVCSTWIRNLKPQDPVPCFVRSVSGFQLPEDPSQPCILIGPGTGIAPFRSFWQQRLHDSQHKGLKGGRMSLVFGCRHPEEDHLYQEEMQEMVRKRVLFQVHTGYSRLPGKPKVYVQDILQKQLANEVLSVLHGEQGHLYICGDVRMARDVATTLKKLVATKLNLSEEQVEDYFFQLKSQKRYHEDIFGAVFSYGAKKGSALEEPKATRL

[5] = target: Delta-type opioid receptor (Homo sapiens, UniProt P41143); type: cell membranes, HEK293, Membrane; details: hek293; also: in other assays of this panel Not Active means under 50% inhibition at 10 µM
Sequence of Delta-type opioid receptor (P41143 whole entry): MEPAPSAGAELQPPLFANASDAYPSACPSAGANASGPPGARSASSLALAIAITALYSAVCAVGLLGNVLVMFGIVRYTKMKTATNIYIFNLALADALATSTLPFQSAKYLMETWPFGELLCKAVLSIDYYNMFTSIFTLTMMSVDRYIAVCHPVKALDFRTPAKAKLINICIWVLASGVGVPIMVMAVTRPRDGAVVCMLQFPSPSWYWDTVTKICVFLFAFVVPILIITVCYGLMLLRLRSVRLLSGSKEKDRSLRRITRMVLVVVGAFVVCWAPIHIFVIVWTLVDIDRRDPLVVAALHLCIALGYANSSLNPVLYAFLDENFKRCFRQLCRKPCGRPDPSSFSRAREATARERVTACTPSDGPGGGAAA

[6] = target: Platelet-activating factor receptor (Homo sapiens, UniProt P25105); type: tissue-based; also: in other assays of this panel Not Active means under 50% inhibition at 10 µM
Sequence of Platelet-activating factor receptor (P25105 whole entry): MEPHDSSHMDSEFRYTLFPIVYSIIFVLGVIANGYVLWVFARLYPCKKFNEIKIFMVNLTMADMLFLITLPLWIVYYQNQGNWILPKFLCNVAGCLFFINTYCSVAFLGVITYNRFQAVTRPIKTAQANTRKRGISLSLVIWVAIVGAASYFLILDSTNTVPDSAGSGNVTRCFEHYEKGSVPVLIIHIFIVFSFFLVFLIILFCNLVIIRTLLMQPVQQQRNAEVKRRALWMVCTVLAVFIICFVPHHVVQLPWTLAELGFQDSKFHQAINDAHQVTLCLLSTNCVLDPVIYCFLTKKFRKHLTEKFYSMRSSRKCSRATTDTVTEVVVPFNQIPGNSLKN

[7] = target: Mitogen-activated protein kinase 3 (Homo sapiens, UniProt P27361); assay: DRUGMATRIX: Protein Serine/Threonine Kinase, ERK1 enzyme inhibition (substrate: Myelin Basic Protein); parameters: species or system Escherichia coli; details: Not Active = under 50% inhibition at 10 µM
Sequence of Mitogen-activated protein kinase 3 (P27361 whole entry): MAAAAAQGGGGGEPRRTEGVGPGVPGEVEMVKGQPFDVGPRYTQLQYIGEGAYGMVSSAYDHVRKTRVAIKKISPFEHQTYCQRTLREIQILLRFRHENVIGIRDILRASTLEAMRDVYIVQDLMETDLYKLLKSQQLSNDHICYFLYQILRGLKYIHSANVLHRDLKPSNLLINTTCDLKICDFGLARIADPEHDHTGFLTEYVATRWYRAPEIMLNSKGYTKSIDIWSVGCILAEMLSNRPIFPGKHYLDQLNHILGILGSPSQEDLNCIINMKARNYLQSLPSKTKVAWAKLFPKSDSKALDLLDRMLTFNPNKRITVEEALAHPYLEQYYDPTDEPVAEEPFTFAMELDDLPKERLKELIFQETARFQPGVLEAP

Sequence of Beta-3 adrenergic receptor (P13945 whole entry): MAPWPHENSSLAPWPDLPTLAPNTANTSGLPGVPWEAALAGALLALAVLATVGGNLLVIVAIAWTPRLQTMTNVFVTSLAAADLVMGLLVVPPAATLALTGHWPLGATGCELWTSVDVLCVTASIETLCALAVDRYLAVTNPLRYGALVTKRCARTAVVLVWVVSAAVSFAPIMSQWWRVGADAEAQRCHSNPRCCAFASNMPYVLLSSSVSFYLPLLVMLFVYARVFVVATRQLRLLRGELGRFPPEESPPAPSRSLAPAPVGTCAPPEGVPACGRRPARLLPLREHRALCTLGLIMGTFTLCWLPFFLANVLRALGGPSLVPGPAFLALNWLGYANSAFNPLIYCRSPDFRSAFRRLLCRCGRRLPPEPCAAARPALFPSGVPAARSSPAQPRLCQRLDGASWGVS

Compound	IC50 [1]	IC50 [2]	IC50 [3]	Ki [3]	IC50 [4]	IC50 [5]	IC50 [6]	IC50 [7]	Ki [1]	Ki [2]	Ki [4]	Ki [5]	Ki [6]	Ki [7]	IC50 ([7]; read-out: IC50) [µM]
CCN1CCCC1CNC(=O)c1cc(S(N)(=O)=O)ccc1OC (stereo not given) [SULPIRIDE]	Not Active	Not Active	Not Active	Not Active	Not Active	Not Active	Not Active	Not Active	–	–	–	–	–	–	–
CC(O)C(=O)O (stereo not given) [LACTIC ACID]	Not Active	Not Active	Not Active	Not Active	Not Active	Not Active	Not Active	Not Active	–	–	–	–	–	–	–
CC(Cl)(Cl)Cl [TRICHLOROETHANE]	Not Active	Not Active	Not Active	Not Active	Not Active	Not Active	Not Active	Not Active	–	–	–	–	–	–	–
CCC(C)(C)C(=O)O[C@H]1C[C@@H](C)C=C2C=C[C@H](C)[C@H](CC[C@@H]3C[C@@H](O)CC(=O)O3)[C@H]21 [SIMVASTATIN]	Not Active	Not Active	Not Active	Not Active	Not Active	Not Active	Not Active	Not Active	–	–	–	–	–	–	–
Cc1ccnc(NS(=O)(=O)c2ccc(N)cc2)n1 [SULFAMERAZINE]	Not Active	Not Active	Not Active	Not Active	Not Active	Not Active	Not Active	Not Active	–	–	–	–	–	–	–
CCN(CC)N=O [N-NITROSODIETHYLAMINE]	Not Active	Not Active	Not Active	Not Active	Not Active	Not Active	Not Active	Not Active	–	–	–	–	–	–	–
CC#C[C@]1(O)CC[C@H]2[C@@H]3CCC4=CC(=O)CCC4=C3[C@@H](c3ccc(N(C)C)cc3)C[C@@]21C [MIFEPRISTONE]	Not Active	Not Active	Not Active	Not Active	Not Active	Not Active	Not Active	Not Active	–	–	–	–	–	–	–
LEAD(IV) ACETATE	Not Active	Not Active	Not Active	Not Active	Not Active	Not Active	Not Active	Not Active	Not Active	Not Active	Not Active	Not Active	Not Active	Not Active	–
O=C(OC[C@H]1O[C@@H](OC(=O)c2cc(O)c(O)c(OC(=O)c3cc(O)c(O)c(O)c3)c2)[C@H](OC(=O)c2cc(O)c(O)c(OC(=O)c3cc(O)c(O)c(O)c3)c2)[C@@H](OC(=O)c2cc(O)c(O)c(OC(=O)c3cc(O)c(O)c(O)c3)c2)[C@@H]1OC(=O)c1cc(O)c(O)c(OC(=O)c2cc(O)c(O)c(O)c2)c1)c1cc(O)c(O)c(OC(=O)c2cc(O)c(O)c(O)c2)c1 [TANNIC ACID]	Not Active	Not Active	Not Active	Not Active	Not Active	Not Active	Not Active	–	–	–	–	–	–	–	4.05
Oc1ccc(/C=C/c2cc(O)cc(O)c2)cc1 [RESVERATROL]	Not Active	Not Active	Not Active	Not Active	Not Active	Not Active	Not Active	Not Active	–	–	–	–	–	–	–
CC[C@@]1(O)C(=O)OCc2c1cc1n(c2=O)Cc2cc3c(CN(C)C)c(O)ccc3nc2-1 [TOPOTECAN]	Not Active	Not Active	Not Active	Not Active	Not Active	Not Active	Not Active	Not Active	–	–	–	–	–	–	–
C=CCc1ccc2c(c1)OCO2 [SAFROLE]	Not Active	Not Active	Not Active	Not Active	Not Active	Not Active	Not Active	Not Active	–	–	–	–	–	–	–
C1CCN2C[C@@H]3C[C@@H](CN4CCCC[C@@H]34)[C@H]2C1 [SPARTEINE]	Not Active	Not Active	Not Active	Not Active	Not Active	Not Active	Not Active	Not Active	–	–	–	–	–	–	–
